The source made the active and inactive calls. The rule behind the calls is not given here.
Tests used:
LNCaP [1] = assay: Induction of apoptosis in human androgen-dependent LNCAP cells assessed as inhibition of androgen receptor expression at 95 uM by Western blot analysis; format: functional, cell-based; conditions: TDE = time-dependent effect
[2] = Induction of apoptosis in human hormone-refractory C4-2B cells assessed as cell viability after 24 hrs by MTT assay; format: functional; conditions: LNCaP C4-2B
LNCaP [3] = assay: Induction of apoptosis in human androgen-dependent LNCAP cells assessed as increase in active caspase 9 at 95 uM up to 48 hrs by Western blot analysis; format: functional, cell-based
LNCaP [4] = assay: Induction of apoptosis in human androgen-dependent LNCAP cells assessed as increase in active caspase 3 at 95 uM up to 48 hrs by Western blot analysis; format: functional, cell-based
LNCaP [5] = assay: Induction of apoptosis in human androgen-dependent LNCAP cells assessed as inhibition of androgen receptor gene expression at 95 uM by RT-PCR analysis; format: functional, cell-based
LNCaP [6] = assay: Induction of apoptosis in human androgen-dependent LNCAP cells assessed as cytochrome c release from mitochondria at 95 uM after 24 hrs by Western blot analysis; format: functional, cell-based
LNCaP [7] = assay: Induction of apoptosis in human androgen-dependent LNCAP cells assessed as […] after 24 hrs by MTT assay; format: functional, cell-based
LNCaP [8] = assay: Induction of apoptosis in human androgen-dependent LNCAP cells assessed as inhibition of PSA protein expression at 95 uM by Western blot analysis; format: functional, cell-based; conditions: TDE = time-dependent effect
LNCaP [9] = assay: Induction of apoptosis in human androgen-dependent LNCAP cells assessed as inhibition of PSA gene expression at 95 uM by RT-PCR analysis in presence of 1 nM […]; format: functional, cell-based
LNCaP [10] = assay: Induction of apoptosis in human androgen-dependent LNCAP cells assessed as PARP cleavage at 95 uM after 12 hrs by Western blot analysis; format: functional, cell-based
LNCaP [11] = assay: Induction of apoptosis in human androgen-dependent LNCAP cells assessed as nuclei DNA fragmentation at 95 uM after 24 hrs by TUNEL assay; format: functional, cell-based
LNCaP [12] = assay: Induction of apoptosis in human androgen-dependent LNCAP cells assessed as inhibition of PSA gene expression at 95 uM by RT-PCR analysis; format: functional, cell-based
LNCaP [13] = assay: Induction of apoptosis in human androgen-dependent LNCAP cells assessed as inhibition of androgen receptor gene expression at 95 uM by RT-PCR analysis in presence of 1 nM […]; format: functional, cell-based

C=CC1CC2(O)CC3(O)CCC=CC3C2(O)C1(O)CCC (stereo not drawn)
Activity (LNCaP [1]): tde
IC50 [2]: 199 µM
Activity (LNCaP [3]): Active
Activity (LNCaP [4]): Active
Activity (LNCaP [5]): Active
Activity (LNCaP [6]): Active
IC50 (LNCaP [7]): 95 µM
Activity (LNCaP [8]): tde
Activity (LNCaP [9]): Active
Activity (LNCaP [10]): Active
Activity (LNCaP [11]): Active
Activity (LNCaP [12]): Active
Activity (LNCaP [13]): Active

— ChEMBL document CHEMBL1681698, “HY251, a novel decahydrocyclopenta[a]indene analog, from Aralia continentalis induces apoptosis via down-regulation of AR expression in human prostate cancer LNCaP cells” (Bioorg Med Chem Lett, 2011)
